In PubChem BioAssay (NCI):
Values joined by “and” are separate entries in the source; they are usually repeats but may differ in a detail not shown here. Identical values can stand only once.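 Values below derive from 48-hour exposures of cells grown in 96-well plates, with endpoints linearly interpolated between the two concentrations bracketing the appropriate inhibition level. GI50: concentration for 50% inhibition of growth. TGI: concentration producing complete growth inhibition.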

Key:
Assay in all cases: inhibition of tumour cell growth, NCI panel, 48 h
BT-549 breast = system: BT-549 breast
DU-145 prostate = system: DU-145 prostate
MCF7 breast = system: MCF7 breast
MDA-MB-231 breast = system: MDA-MB-231 breast
MDA-MB-435 = system: MDA-MB-435
NCI/ADR-RES ovarian = system: NCI/ADR-RES ovarian
T-47D breast = system: T-47D breast
DMS 114 small cell lung = system: DMS 114 small cell lung
HOP-18 NSCLC = system: HOP-18 NSCLC
XF 498 CNS = system: XF 498 CNS

Structure (SMILES) | GI50 (BT-549 breast) [µM] | TGI (BT-549 breast) [µM] | GI50 (DU-145 prostate) [µM] | TGI (DU-145 prostate) [µM] | GI50 (MCF7 breast) [µM] | TGI (MCF7 breast) [µM] | GI50 (MDA-MB-231 breast) [µM] | TGI (MDA-MB-231 breast) [µM] | GI50 (MDA-MB-435) [µM] | TGI (MDA-MB-435) | GI50 (NCI/ADR-RES ovarian) [µM] | TGI (NCI/ADR-RES ovarian) [µM] | GI50 (T-47D breast) [µM] | TGI (T-47D breast) [µM] | TGI (DMS 114 small cell lung) [µM] | TGI (HOP-18 NSCLC) [µM] | TGI (XF 498 CNS) [µM]
COc1ccc(C(=O)/C=C/c2cccnc2Nc2cc(OC)c(OC)c(OC)c2)cc1 | 3.1 | 11.6 | 4.89 | 17.1 | 0.106 | 11 | 2.67 | 12.4 | 0.885 | 12.2 µM | 1 | 6.29 | 1.94 | 15.6 |  |  | 
CN(C)C(=S)SN(C)C(=O)Nc1ccccc1 |  | > 100 |  | > 100 |  | > 47.1 |  | > 100 |  | > 72.5 µM |  | 11.1 |  | 99.1 | 27.4 |  | 
NCCCNCCSSCCCCS(=O)O |  |  |  |  |  |  |  |  |  |  |  |  |  |  | > 100 | > 100 | 37.4
COc1ccc(C2CC(=O)c3c(OC)cc(OC)cc3O2)cc1 (stereo not drawn) | > 100 | > 100 | > 100 | > 100 | > 100 | > 100 | > 100 | > 100 | > 100 | > 100 µM | > 100 | > 100 | > 100 | > 100 |  |  | 
CCCCCCCCCCC(O)C1CCC(C2CCC(C(O)CCCCC(O)CCCCCC(O)CC3=CC(C)OC3=O)O2)O1 (stereo not drawn) |  | > 25 | > 25 | > 25 | 23.5 | > 25 | 4.82 | > 25 | 1.51 | 9.96 µM and > 25 µM | > 25 | > 25 | 7.17 | > 25 |  |  | 
COc1ccc(-n2cc(-c3cc(OC)c(OC)c(OC)c3)[nH]c2=S)cc1OC | > 100 | > 100 | > 100 | > 100 | > 100 | > 100 | > 100 | > 100 | > 100 | > 100 µM | > 100 | > 100 | > 100 | > 100 |  |  | 
Cc1cccc(C(C)(C)C)c1NC(=O)CCc1n[nH]c(=S)o1 |  |  |  |  |  |  |  |  |  |  |  |  |  |  | > 100 | > 100 | 
COc1ccc(-c2nc(-c3nc4ccc(C)cc4[nH]3)c3ccccn23)cc1 | 2.55 | 6.36 | 2.85 | > 100 | 2.7 | > 100 | 3.09 | > 100 | 2.3 | 8.46 µM | 2.71 | 8.06 | 2.27 | 8.06 |  |  | 
COC(=O)C(=O)C(C(=O)C(=O)Nc1ccc(C)cc1C)c1nc2ccccc2[nH]c1=O (stereo not drawn) |  |  |  |  |  |  |  |  |  |  |  |  |  |  |  | > 100 | > 100
CSc1nc(NC2OC(COC(C)=O)C(OC(C)=O)C(OC(C)=O)C2OC(C)=O)c2c(OC(C)=O)c(C)c(=O)oc2n1 (stereo not drawn) |  |  |  |  |  |  |  |  |  |  |  |  |  |  | > 100 | > 100 | > 100
O=C(CC(=O)N1N=C(c2ccccc2)C(N=Nc2ccc(Cl)cc2)C1=O)Nc1ccccc1Cl (stereo not drawn) |  |  |  |  |  |  |  |  |  |  |  |  |  |  | > 100 | 67.8 | 89.7
Cn1cc(C2=C(c3cn(C)c4c(N)cccc34)C(=O)NC2=O)c2ccccc21 | 1.01 | 6.66 | 2.48 | > 25 | 0.673 | > 20.9 | 4.63 | 20.8 | 0.0872 | > 25 µM | 2.02 | > 25 | 1.31 | 11.9 |  |  | 
N#C/C(C(=S)Nc1ccccc1)=C1/NN=C2c3ccccc3C(=O)NN21 | 24.3 | 80 | 28.8 | > 100 | 22.8 | 77.5 | 29.5 | > 100 | 7.8 | 24.3 µM | 20.6 | 58.8 | 36.7 | > 100 |  |  | 
